Results as given in patent US20140348819A1, “Methods of Treating Cancer” (Dana-Farber Cancer Institute, Inc., priority 2011, published 2014).

Test system: six V600E BRAF melanoma cell lines
Experiment: Screening of recombinant RTK ligands for ability to confer resistance to BRAFi (PLX4720) or MEKi (PD184352) (Table 4)
Assay type: cell-based, human
Parameters: ability of recombinant RTK ligand to confer resistance / ability of recombinant RTK ligand to confer resistance (screening value): scale not given here
Method: HGF is the only one that can substantially confer drug resistance to the cell lines.
The complexity of the tumor microenvironment is much greater than an in vitro co-culture system. Therefore, the inventors explored whether the activation of other RTKs could result in a similar resistance as that observed with the activation of MET. To this end, six V600E BRAF melanoma cell lines were tested for their resistance to either BRAFi (PLX4720) or MEKi (PD184352) after the addition of 22 RTK ligands that have the potential of activating almost all known RTKs. […] The activation of a selected subset of these RTKs was confirmed by western blotting and by high throughput tyrosine kinase phosphorylation profiling.

For IGF-I, which “ability of recombinant RTK ligand to confer resistance” value (from here on “ability of recombinant RTK ligand”) (A2058, PD184352 - 1 uM, ligand 0.4 ng/ml) is on record?
Its value is 1.10.

What about the “ability of recombinant RTK ligand” value (A2058, PD184352 - 1 uM, ligand 1.6 ng/ml) of the same substance?
Its value is 1.02.

What about the “ability of recombinant RTK ligand” value (A2058, PD184352 - 1 uM, ligand 6.25 ng/ml) of the same substance?
The value was 1.03.

And the “ability of recombinant RTK ligand” value (A2058, PD184352 - 1 uM, ligand 25 ng/ml)?
The value was 1.08.

What about the “ability of recombinant RTK ligand” value (A2058, PD184352 - 1 uM, ligand 100 ng/ml) of the same substance?
Its value is 1.02.

What about the “ability of recombinant RTK ligand” value (A2058, PLX4720 - 2 uM, ligand 0.4 ng/ml) of the same substance?
Its value is 1.05.

What about the “ability of recombinant RTK ligand” value (A2058, PLX4720 - 2 uM, ligand 1.6 ng/ml) of the same substance?
Its value is 0.95.

What about the “ability of recombinant RTK ligand” value (A2058, PLX4720 - 2 uM, ligand 6.25 ng/ml) of the same substance?
The value was 0.97.

And the “ability of recombinant RTK ligand” value (A2058, PLX4720 - 2 uM, ligand 25 ng/ml)?
The value was 1.04.

And the “ability of recombinant RTK ligand” value (A2058, PLX4720 - 2 uM, ligand 100 ng/ml)?
Its value is 0.99.

And the “ability of recombinant RTK ligand” value (C32, PD184352 - 1 uM, ligand 0.4 ng/ml)?
Its value is 1.05.

What about the “ability of recombinant RTK ligand” value (C32, PD184352 - 1 uM, ligand 1.6 ng/ml) of the same substance?
Its value is 1.04.

And the “ability of recombinant RTK ligand” value (C32, PD184352 - 1 uM, ligand 6.25 ng/ml)?
Its value is 1.21.

And the “ability of recombinant RTK ligand” value (C32, PD184352 - 1 uM, ligand 25 ng/ml)?
The value was 1.16.

And the “ability of recombinant RTK ligand” value (C32, PD184352 - 1 uM, ligand 100 ng/ml)?
The value was 1.21.

What about the “ability of recombinant RTK ligand” value (C32, PLX4720 - 2 uM, ligand 0.4 ng/ml) of the same substance?
The value was 1.08.

And the “ability of recombinant RTK ligand” value (C32, PLX4720 - 2 uM, ligand 1.6 ng/ml)?
The value was 1.12.

What about the “ability of recombinant RTK ligand” value (C32, PLX4720 - 2 uM, ligand 6.25 ng/ml) of the same substance?
The value was 1.17.

What about the “ability of recombinant RTK ligand” value (C32, PLX4720 - 2 uM, ligand 25 ng/ml) of the same substance?
The value was 1.15.

What about the “ability of recombinant RTK ligand” value (C32, PLX4720 - 2 uM, ligand 100 ng/ml) of the same substance?
The value was 1.07.

And the “ability of recombinant RTK ligand” value (Colo 829, PD184352 - 1 uM, ligand 0.4 ng/ml)?
The value was 1.06.

What about the “ability of recombinant RTK ligand” value (Colo 829, PD184352 - 1 uM, ligand 1.6 ng/ml) of the same substance?
Its value is 0.97.

And the “ability of recombinant RTK ligand” value (Colo 829, PD184352 - 1 uM, ligand 6.25 ng/ml)?
Its value is 1.03.

And the “ability of recombinant RTK ligand” value (Colo 829, PD184352 - 1 uM, ligand 25 ng/ml)?
The value was 1.01.

And the “ability of recombinant RTK ligand” value (Colo 829, PD184352 - 1 uM, ligand 100 ng/ml)?
Its value is 1.08.

And the “ability of recombinant RTK ligand” value (Colo 829, PLX4720 - 2 uM, ligand 0.4 ng/ml)?
Its value is 1.00.

What about the “ability of recombinant RTK ligand” value (Colo 829, PLX4720 - 2 uM, ligand 1.6 ng/ml) of the same substance?
The value was 0.99.

And the “ability of recombinant RTK ligand” value (Colo 829, PLX4720 - 2 uM, ligand 6.25 ng/ml)?
Its value is 1.06.

What about the “ability of recombinant RTK ligand” value (Colo 829, PLX4720 - 2 uM, ligand 25 ng/ml) of the same substance?
The value was 1.03.

What about the “ability of recombinant RTK ligand” value (Colo 829, PLX4720 - 2 uM, ligand 100 ng/ml) of the same substance?
The value was 1.07.

And the “ability of recombinant RTK ligand” value (G-361, PD184352 - 1 uM, ligand 0.4 ng/ml)?
Its value is 1.06.

What about the “ability of recombinant RTK ligand” value (G-361, PD184352 - 1 uM, ligand 1.6 ng/ml) of the same substance?
The value was 1.00.

And the “ability of recombinant RTK ligand” value (G-361, PD184352 - 1 uM, ligand 6.25 ng/ml)?
The value was 1.17.

And the “ability of recombinant RTK ligand” value (G-361, PD184352 - 1 uM, ligand 25 ng/ml)?
The value was 0.99.

What about the “ability of recombinant RTK ligand” value (G-361, PD184352 - 1 uM, ligand 100 ng/ml) of the same substance?
Its value is 0.95.

What about the “ability of recombinant RTK ligand” value (G-361, PLX4720 - 2 uM, ligand 0.4 ng/ml) of the same substance?
Its value is 1.03.

What about the “ability of recombinant RTK ligand” value (G-361, PLX4720 - 2 uM, ligand 1.6 ng/ml) of the same substance?
The value was 1.05.

And the “ability of recombinant RTK ligand” value (G-361, PLX4720 - 2 uM, ligand 6.25 ng/ml)?
The value was 1.11.

And the “ability of recombinant RTK ligand” value (G-361, PLX4720 - 2 uM, ligand 25 ng/ml)?
The value was 0.99.

And the “ability of recombinant RTK ligand” value (G-361, PLX4720 - 2 uM, ligand 100 ng/ml)?
The value was 0.87.

And the “ability of recombinant RTK ligand” value (SK-MEL-5, PD184352 - 1 uM, ligand 0.4 ng/ml)?
The value was 1.01.

What about the “ability of recombinant RTK ligand” value (SK-MEL-5, PD184352 - 1 uM, ligand 1.6 ng/ml) of the same substance?
Its value is 1.01.

And the “ability of recombinant RTK ligand” value (SK-MEL-5, PD184352 - 1 uM, ligand 6.25 ng/ml)?
The value was 1.08.

And the “ability of recombinant RTK ligand” value (SK-MEL-5, PD184352 - 1 uM, ligand 25 ng/ml)?
The value was 1.06.

And the “ability of recombinant RTK ligand” value (SK-MEL-5, PD184352 - 1 uM, ligand 100 ng/ml)?
The value was 1.29.

What about the “ability of recombinant RTK ligand” value (SK-MEL-5, PLX4720 - 2 uM, ligand 0.4 ng/ml) of the same substance?
Its value is 1.01.

What about the “ability of recombinant RTK ligand” value (SK-MEL-5, PLX4720 - 2 uM, ligand 1.6 ng/ml) of the same substance?
Its value is 1.03.

And the “ability of recombinant RTK ligand” value (SK-MEL-5, PLX4720 - 2 uM, ligand 6.25 ng/ml)?
Its value is 1.19.

What about the “ability of recombinant RTK ligand” value (SK-MEL-5, PLX4720 - 2 uM, ligand 25 ng/ml) of the same substance?
The value was 1.25.

What about the “ability of recombinant RTK ligand” value (SK-MEL-5, PLX4720 - 2 uM, ligand 100 ng/ml) of the same substance?
Its value is 1.12.

What about the “ability of recombinant RTK ligand” value (SK-MEL-28, PD184352 - 1 uM, ligand 0.4 ng/ml) of the same substance?
Its value is 1.10.

And the “ability of recombinant RTK ligand” value (SK-MEL-28, PD184352 - 1 uM, ligand 1.6 ng/ml)?
Its value is 1.06.

What about the “ability of recombinant RTK ligand” value (SK-MEL-28, PD184352 - 1 uM, ligand 6.25 ng/ml) of the same substance?
Its value is 0.98.

And the “ability of recombinant RTK ligand” value (SK-MEL-28, PD184352 - 1 uM, ligand 25 ng/ml)?
The value was 1.06.

And the “ability of recombinant RTK ligand” value (SK-MEL-28, PD184352 - 1 uM, ligand 100 ng/ml)?
Its value is 1.12.

What about the “ability of recombinant RTK ligand” value (SK-MEL-28, PLX4720 - 2 uM, ligand 0.4 ng/ml) of the same substance?
The value was 1.24.

What about the “ability of recombinant RTK ligand” value (SK-MEL-28, PLX4720 - 2 uM, ligand 1.6 ng/ml) of the same substance?
The value was 1.08.

What about the “ability of recombinant RTK ligand” value (SK-MEL-28, PLX4720 - 2 uM, ligand 6.25 ng/ml) of the same substance?
Its value is 1.09.

What about the “ability of recombinant RTK ligand” value (SK-MEL-28, PLX4720 - 2 uM, ligand 25 ng/ml) of the same substance?
The value was 1.02.

What about the “ability of recombinant RTK ligand” value (SK-MEL-28, PLX4720 - 2 uM, ligand 100 ng/ml) of the same substance?
The value was 1.01.
